Assay results published in ChEMBL document CHEMBL1201862, “PubChem BioAssay data set” (2004).
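Grown in 96-well plates, cells were treated for 48 hours with each compound at five concentrations. Insufficient inhibition: endpoint recorded as highest concentration tested. The concentration for 50% growth inhibition is given as GI50.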 The source made the active and inactive calls. Cut-off read from the data, not from the text of the source: active = GI50 up to about 1.1 µM and inactive = higher.

Assays:
Test in all cases: inhibition of tumour cell growth, NCI panel, 48 h
A549 = system: A549
CCRF-CEM = system: CCRF-CEM
HL-60 = system: HL-60
LOX IMVI = system: LOX IMVI
Malme-3M = system: Malme-3M
NCI-H23 = system: NCI-H23
NCI-H460 = system: NCI-H460
OVCAR-3 = system: OVCAR-3
OVCAR-5 = system: OVCAR-5
RXF 393 = system: RXF 393
SF-268 = system: SF-268
SK-MEL-28 = system: SK-MEL-28
SK-MEL-5 = system: SK-MEL-5
SNB-19 = system: SNB-19
SNB-75 = system: SNB-75
SW-620 = system: SW-620
EKVX = system: EKVX
HCC 2998 = system: HCC 2998
SK-MEL-2 = system: SK-MEL-2
A498 = system: A498

Row | SMILES | GI50 (A549) | GI50 (CCRF-CEM) | GI50 (HL-60) | GI50 (LOX IMVI) | GI50 (Malme-3M) | GI50 (NCI-H23) | GI50 (NCI-H460) | GI50 (OVCAR-3) | GI50 (OVCAR-5) | GI50 (RXF 393) | GI50 (SF-268) | GI50 (SK-MEL-28) | GI50 (SK-MEL-5) | GI50 (SNB-19) | GI50 (SNB-75) | GI50 (SW-620) | GI50 (EKVX) | GI50 (HCC 2998) | GI50 (SK-MEL-2) | GI50 (A498)
1 | N#Cc1c(NC(=S)NC(=O)c2ccccc2)nc2c(c1-c1ccccc1)CCCC2 | > 100 µM (inactive) | > 100 µM (inactive) | > 100 µM (inactive) | > 100 µM (inactive) | > 10 µM (inactive) | > 100 µM (inactive) | > 100 µM (inactive) | > 100 µM (inactive) | > 100 µM (inactive) | 17.8 µM (inactive) | 0.299 µM (active) | 78.7 µM (inactive) | 73.6 µM (inactive) | > 100 µM (inactive) | 17.1 µM (inactive) | > 100 µM (inactive) | – | – | – | –
2 | O=C1C=C(Sc2ccccc2)c2nccc3c2c1nc1ccccc13 | 31.5 µM (inactive) | 3.13 µM (inactive) | 2.08 µM (inactive) | 11.8 µM (inactive) | 12.2 µM (inactive) | 23.6 µM (inactive) | 23.6 µM (inactive) | 3.35 µM (inactive) | 32.4 µM (inactive) | – | 12.4 µM (inactive) | 19.3 µM (inactive) | – | 37.2 µM (inactive) | 33.3 µM (inactive) | 14.8 µM (inactive) | 20.7 µM (inactive) | 17.5 µM (inactive) | 14.2 µM (inactive) | –
3 | c1ccc2c(c1)NCc1cc3ccccc3nc1O2 | > 100 µM (inactive) | > 68.5 µM (inactive) | 55.6 µM (inactive) | 97.1 µM (inactive) | > 100 µM (inactive) | > 100 µM (inactive) | > 100 µM (inactive) | > 100 µM (inactive) | > 100 µM (inactive) | > 100 µM (inactive) | > 100 µM (inactive) | > 100 µM (inactive) | > 100 µM (inactive) | > 100 µM (inactive) | > 84.5 µM (inactive) | > 100 µM (inactive) | > 100 µM (inactive) | > 100 µM (inactive) | > 100 µM (inactive) | > 75.5 µM (inactive)
4 | COc1ccc2[nH]c3c(C)c4ccncc4c(C)c3c2c1 | 0.264 µM (active) | 0.0982 µM (active) | 0.532 µM (active) | 0.251 µM (active) | 1.44 µM (inactive) | 0.34 µM (active) | 0.0292 µM (active) | 0.402 µM (active) | 1.42 µM (inactive) | 0.1 µM (active) | 0.429 µM (active) | 2.09 µM (inactive) | 1.26 µM (inactive) | 0.532 µM (active) | 1.17 µM (inactive) | 0.0918 µM (active) | 1.01 µM (active) | 1.92 µM (inactive) | 1.86 µM (inactive) | 0.504 µM (active)
5 | COc1ccc(C2c3cc4c(cc3OC(NCCO)C2C)OCO4)cc1 (centres undefined) | 21.7 µM (inactive) | 21.2 µM (inactive) | 22.6 µM (inactive) | 23.3 µM (inactive) | 18.7 µM (inactive) | 35.8 µM (inactive) | 22.8 µM (inactive) | 17.8 µM (inactive) | 39.7 µM (inactive) | 23.2 µM (inactive) | 23.2 µM (inactive) | 25.1 µM (inactive) | 19.8 µM (inactive) | 28 µM (inactive) | 19.6 µM (inactive) | 34.4 µM (inactive) | 32 µM (inactive) | 26.5 µM (inactive) | 19.3 µM (inactive) | 17.3 µM (inactive)
6 | O=C1CCCCC2N(C(c3ccccc3)c3ccccc3)CC[C@@]12c1ccccc1.O=C1CCCC[C@H]2N(C(c3ccccc3)c3ccccc3)CC[C@@]12c1ccccc1 (some centres undefined) | > 10 µM (inactive) | 6.12 µM (inactive) | 2.87 µM (inactive) | 6.3 µM (inactive) | – | 4.8 µM (inactive) | 9.55 µM (inactive) | > 10 µM (inactive) | > 10 µM (inactive) | 4.32 µM (inactive) | > 10 µM (inactive) | > 10 µM (inactive) | 4.57 µM (inactive) | > 10 µM (inactive) | > 10 µM (inactive) | – | 7.73 µM (inactive) | – | – | > 10 µM (inactive)
7 | O=C/C(=C1/C=Cc2cc([N+](=O)[O-])ccc2S1)c1ccccc1 | > 100 µM (inactive) | > 100 µM (inactive) | > 100 µM (inactive) | > 100 µM (inactive) | > 100 µM (inactive) | > 100 µM (inactive) | > 100 µM (inactive) | > 100 µM (inactive) | > 100 µM (inactive) | > 100 µM (inactive) | > 100 µM (inactive) | > 100 µM (inactive) | > 100 µM (inactive) | > 100 µM (inactive) | 25.1 µM (inactive) | – | > 100 µM (inactive) | > 100 µM (inactive) | > 100 µM (inactive) | > 100 µM (inactive)
8 | Nc1ccccc1Sc1ccc(Cl)cc1 | 37.2 µM (inactive) | 17.9 µM (inactive) | 18.7 µM (inactive) | 28.6 µM (inactive) | 26.1 µM (inactive) | 26.2 µM (inactive) | 24.3 µM (inactive) | 25.6 µM (inactive) | 29.9 µM (inactive) | 13.5 µM (inactive) | 39.6 µM (inactive) | 28.9 µM (inactive) | 17.8 µM (inactive) | – | 18.1 µM (inactive) | 37.1 µM (inactive) | 30.1 µM (inactive) | 28.1 µM (inactive) | 27.9 µM (inactive) | 54.2 µM (inactive)
9 | CN(C)c1ccc(C2CC(=O)CC(c3ccc(N(C)C)cc3)C23C(=O)NC(=O)NC3=O)cc1 (centres undefined) | – | > 25 µM (inactive) | > 25 µM (inactive) | > 25 µM (inactive) | 8.73 µM (inactive) | > 25 µM (inactive) | > 25 µM (inactive) | > 25 µM (inactive) | > 25 µM (inactive) | 15.8 µM (inactive) | 19.5 µM (inactive) | > 25 µM (inactive) | > 25 µM (inactive) | 9.14 µM (inactive) | 9.79 µM (inactive) | > 25 µM (inactive) | > 25 µM (inactive) | > 25 µM (inactive) | 16.7 µM (inactive) | –
10 | Cc1nn(C)c2c1C(=O)N(C)CC(=O)N2C | > 100 µM (inactive) | > 100 µM (inactive) | > 100 µM (inactive) | – | > 100 µM (inactive) | > 100 µM (inactive) | > 100 µM (inactive) | > 100 µM (inactive) | > 100 µM (inactive) | > 100 µM (inactive) | > 100 µM (inactive) | > 100 µM (inactive) | > 100 µM (inactive) | > 100 µM (inactive) | > 100 µM (inactive) | > 100 µM (inactive) | > 100 µM (inactive) | > 100 µM (inactive) | – | > 100 µM (inactive)
11 | CC(C)(C)/N=c1/n(C(C)(C)C)oc(=O)n1C(C)(C)C | > 100 µM (inactive) | > 100 µM (inactive) | > 100 µM (inactive) | > 100 µM (inactive) | > 100 µM (inactive) | 81.1 µM (inactive) | > 100 µM (inactive) | > 100 µM (inactive) | > 100 µM (inactive) | > 100 µM (inactive) | – | > 100 µM (inactive) | > 100 µM (inactive) | > 100 µM (inactive) | 99.5 µM (inactive) | > 100 µM (inactive) | > 100 µM (inactive) | > 100 µM (inactive) | > 100 µM (inactive) | > 100 µM (inactive)
12 | Nc1ccc(N(S(=O)(=O)c2ccccc2)S(=O)(=O)c2ccccc2)c(Cl)c1 | 50.5 µM (inactive) | – | – | 68.1 µM (inactive) | 42.5 µM (inactive) | 55.8 µM (inactive) | 34.8 µM (inactive) | – | > 100 µM (inactive) | > 100 µM (inactive) | 69.2 µM (inactive) | 68.9 µM (inactive) | 20.1 µM (inactive) | > 100 µM (inactive) | 42.2 µM (inactive) | 42.9 µM (inactive) | 64.3 µM (inactive) | 18.5 µM (inactive) | 31.3 µM (inactive) | 25.2 µM (inactive)
13 | Cc1c(Cl)c(=O)oc2cc(OCC(=O)c3ccccc3)ccc12 | > 100 µM (inactive) | > 100 µM (inactive) | > 100 µM (inactive) | – | > 100 µM (inactive) | > 100 µM (inactive) | > 100 µM (inactive) | > 100 µM (inactive) | > 100 µM (inactive) | > 100 µM (inactive) | > 100 µM (inactive) | > 100 µM (inactive) | > 100 µM (inactive) | > 100 µM (inactive) | – | > 100 µM (inactive) | > 100 µM (inactive) | > 100 µM (inactive) | > 100 µM (inactive) | > 100 µM (inactive)
14 | C=CCC12CC(=O)C=C1CCC1(C2)OCCO1 (centres undefined) | > 100 µM (inactive) | > 100 µM (inactive) | > 100 µM (inactive) | – | > 100 µM (inactive) | – | > 100 µM (inactive) | > 100 µM (inactive) | – | > 100 µM (inactive) | > 100 µM (inactive) | > 100 µM (inactive) | > 100 µM (inactive) | > 100 µM (inactive) | > 100 µM (inactive) | > 100 µM (inactive) | – | > 100 µM (inactive) | > 100 µM (inactive) | > 100 µM (inactive)
15 | CN(C)CCCNC(=O)N/N=C/c1ccccc1 | > 100 µM (inactive) | > 100 µM (inactive) | > 100 µM (inactive) | > 100 µM (inactive) | > 100 µM (inactive) | – | > 100 µM (inactive) | > 100 µM (inactive) | – | > 100 µM (inactive) | > 100 µM (inactive) | > 100 µM (inactive) | > 100 µM (inactive) | > 100 µM (inactive) | > 100 µM (inactive) | > 100 µM (inactive) | – | – | > 100 µM (inactive) | > 100 µM (inactive)
